Test results taken from ChEMBL document CHEMBL1201862, “PubChem BioAssay data set” (2004).
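96-well plates; 48 h exposure; 5 concentrations. Endpoints by linear interpolation between flanking doses. Not reached: highest tested concentration assigned. Here, GI50 denotes the concentration required for 50% inhibition of growth.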 Active and inactive are the calls of the source. Cut-off read from the data, not from the text of the source: active = GI50 up to about 1.1 µM and inactive = higher.

Key:
Assay in all cases: inhibition of tumour cell growth, NCI panel, 48 h
Malme-3M = tested on: Malme-3M
HCC 2998 = tested on: HCC 2998
KM12 = tested on: KM12
MDA-N = tested on: MDA-N
MDA-MB-435 = tested on: MDA-MB-435
MDA-MB-231 = tested on: MDA-MB-231
U-251 = tested on: U-251
SK-OV-3 = tested on: SK-OV-3
OVCAR-4 = tested on: OVCAR-4
NCI-H23 = tested on: NCI-H23
K562 = tested on: K562
M14 = tested on: M14
SN12C = tested on: SN12C
MCF7 = tested on: MCF7
SK-MEL-28 = tested on: SK-MEL-28
A549 = tested on: A549
SNB-75 = tested on: SNB-75
CAKI-1 = tested on: CAKI-1
ACHN = tested on: ACHN

Measured: GI50

CC(C)C1=CC(=O)C(C)(C2C(O)CC3(C)C4CC=C5C(CCC(OC6OC(CO)C(O)C(O)C6OC6OC(C)C(O)C(O)C6O)C5(C)C)C4(C)C(=O)CC23C)O1 (stereo unspecified)
inactive: Malme-3M > 100 µM | HCC 2998 > 100 µM | KM12 > 100 µM | MDA-N > 100 µM | MDA-MB-435 > 100 µM | MDA-MB-231 > 100 µM | U-251 > 100 µM | SK-OV-3 > 100 µM | OVCAR-4 > 100 µM | NCI-H23 > 100 µM | K562 > 100 µM | M14 > 100 µM | SN12C > 100 µM | MCF7 > 100 µM | SK-MEL-28 > 100 µM | A549 > 100 µM | SNB-75 > 100 µM | CAKI-1 > 100 µM | ACHN > 100 µM

CCCCn1cc(C(=O)O)c(=O)c2c3sccc3ccc21
inactive: Malme-3M > 100 µM | HCC 2998 > 100 µM | KM12 > 100 µM | MDA-N > 100 µM | MDA-MB-435 > 100 µM | MDA-MB-231 > 100 µM | U-251 6.73 µM | SK-OV-3 > 100 µM | OVCAR-4 > 100 µM | NCI-H23 > 100 µM | K562 > 100 µM | M14 > 100 µM | SN12C > 100 µM | MCF7 > 100 µM | SK-MEL-28 > 100 µM | A549 > 100 µM | SNB-75 25.8 µM | CAKI-1 > 100 µM | ACHN > 100 µM

CCC(C)C(C(=O)N/N=C1/SCC(=O)N1C)C(=O)N/N=C1/SCC(=O)N1C (stereo unspecified)
inactive: Malme-3M > 100 µM | HCC 2998 > 100 µM | KM12 > 100 µM | MDA-N > 100 µM | MDA-MB-435 > 100 µM | MDA-MB-231 > 100 µM | U-251 > 100 µM | SK-OV-3 > 100 µM | OVCAR-4 > 100 µM | NCI-H23 > 100 µM | K562 > 100 µM | M14 > 100 µM | SN12C > 100 µM | MCF7 > 100 µM | SK-MEL-28 > 100 µM | A549 > 100 µM | SNB-75 > 100 µM | CAKI-1 > 100 µM | ACHN > 100 µM

CCCCCCCCOP(=O)(O)OP(=O)(O)OCC1OC(n2ccc(N)nc2=O)C(O)C1O (stereo unspecified)
inactive: Malme-3M > 100 µM | HCC 2998 > 100 µM | KM12 > 100 µM | MDA-N > 100 µM | MDA-MB-435 > 100 µM | MDA-MB-231 > 100 µM | U-251 > 100 µM | SK-OV-3 > 100 µM | OVCAR-4 > 100 µM | NCI-H23 > 100 µM | K562 > 100 µM | M14 > 100 µM | SN12C > 100 µM | MCF7 > 100 µM | SK-MEL-28 > 100 µM | A549 > 100 µM | SNB-75 > 100 µM | CAKI-1 > 100 µM | ACHN > 100 µM
